Active and inactive are the calls of the source. No cut-off for these calls is given here.
What was measured:
Type in all cases: functional, cell-based
HUVEC [1] = assay: Antiproliferative activity against human HUVEC cells after 72 hrs
[2] = Antiproliferative activity against human KB3-1 cells after 72 hrs; settings: KB 3-1, 72 h
HUVEC [3] = assay: Inhibition of VEGF-induced tubular formation in human HUVEC cells
HUVEC [4] = assay: Inhibition of VEGF-induced migration in human HUVEC cells

| Structure (SMILES) | IC50 (HUVEC [1]) [µM] | IC50 [2] [µM] | Activity (HUVEC [3]) | Activity (HUVEC [4]) |
| --- | --- | --- | --- | --- |
| CC(C)=C/C=C/C(C)=C/C=C/C(C)=C1/C(=O)C[C@H]2CC3(CC[C@]12C)OCCO3 | 13 | 20 |  |  |
| CC(C)=C/C=C/C(C)=C/C=C/C(C)=C1/C(=O)C[C@H]2CC(=O)CC[C@]12C | 2.6 | 17 |  |  |
| CC(C)=C/C=C/C(C)=C/C=C/C(C)=C1/CC[C@H]2CC3(CC[C@]12C)OCCO3 | 8.8 | 21 |  |  |
| COC(=O)[C@]1(C)[C@@H]2CC[C@]3(C)/C(=C(C)/C=C/C=C(C)/C=C/C=C(C)C)C(=O)C[C@H]3[C@@]2(C)CC[C@H]1OC(C)=O (stereo in doubt) |  |  | Active | Active |
| COC(=O)[C@]1(C)[C@@H]2CC[C@]3(C)\C(=C(C)/C=C/C=C(C)/C=C/C=C(C)C)C(=O)C[C@H]3[C@@]2(C)CC[C@H]1OC(C)=O (stereo in doubt) | 0.09 | 14 | Active | Active |
| COC(=O)[C@]1(C)[C@@H]2CC[C@]3(C)/C(=C(C)/C=C/C=C(C)\C=C\C=C(C)C)C(=O)C[C@H]3[C@@]2(C)CC[C@H]1OC(C)=O (stereo in doubt) |  |  | Active | Active |
| COC(=O)[C@]1(C)[C@@H]2CC[C@]3(C)\C(=C(C)/C=C/C=C(C)\C=C\C=C(C)C)C(=O)C[C@H]3[C@@]2(C)CC[C@H]1OC(C)=O (stereo in doubt) |  |  | Active | Active |

— ChEMBL document CHEMBL1145566, “Synthesis of BC-ring model of globostellatic acid X methyl ester, an anti-angiogenic substance from marine sponge” (Bioorg Med Chem Lett, 2008)
